The EC50 is the concentration that produces a half-maximal response. A low value points to greater potency.

The test concerns Per2-dLuc U2OS reporter cells. Description: Per2 assay for evaluating the potency of test compounds (high-throughput circadian assay). The format is cell-based. The following applies: Homo sapiens, U2OS, stable U2OS reporter cells harboring Per2-dLuc; luminescence monitored over 4-5 days at 35° C. An outline of the steps: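 Compounds (0.5% DMSO final) were added right after serum-shock synchronization of Per2-dLuc U2OS reporter cells in minimal medium containing 1.0 mM beetle luciferin. Reporter luminescence was followed at 35 °C for 4–5 days to extract rhythm period, amplitude and phase, and EC50 values were obtained from these.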
On to `CC(C)N1CCCN(CC(O)Cn2c3ccc(F)cc3c3cc(F)ccc32)S1(=O)=O` (stereo not drawn) [Compound 217, 2-(3-(3,6-Difluoro-9H-carbazol-9-yl)-2-hydroxypropyl)-6-isopropyl-1,2,6-thiadiazinane-1,1-dioxide], for which the EC50 stood at 1670 nM.

For the compound `CS(=O)(=O)N(CC(O)Cn1c2ccccc2c2ccccc21)C1CCCC(F)(F)C1` (stereo not drawn) [Compound 134, N-(3-(9H-Carbazol-9-yl)-2-hydroxypropyl)-N-(3,3-difluorocyclohexyl)methanesulfonamide], the EC50 was found to be 1080 nM.

`CC(C)N1CCN(CC(O)Cn2c3ccc(F)cc3c3cc(F)ccc32)S1(=O)=O` (stereo not drawn) [Compound 224]: a half-maximal response (EC50) required 59 nM.

`CS(=O)(=O)N(CC(O)Cn1c2ccccc2c2ccccc21)C1(C(F)(F)F)CCC1` (stereo not drawn) [Compound 146, N-(3-(9H-Carbazol-9-yl)-2-hydroxypropyl)-N-(1-(trifluoromethyl)cyclobutyl)methanesulfonamide] yielded an EC50 of 1160 nM.

Take `CS(=O)(=O)N(Cc1ccco1)CC(O)Cn1c2ccccc2c2c(F)cccc21` (stereo not drawn) [Compound 239, N-(3-(4-Fluoro-9H-carbazol-9-yl)-2-hydroxy-propyl)-N-(furan-2-yl-methyl)methane-sulfonamide]: the midpoint of the response, the EC50, lay at 1580 nM.

Consider `CCCN(CC(C)(O)Cn1c2ccc(F)cc2c2cc(F)ccc21)S(C)(=O)=O` (stereo not drawn) [Compound 151, N-(3-(3,6-Difluoro-9H-carbazol-9-yl)-2-hydroxy-2-methylpropyl)-N-propylmethanesulfonamide], for which the midpoint of the response, the EC50, lay at 2260 nM.

In turn, `CC1CCCC(N(CC(O)Cn2c3ccccc3c3ccccc32)S(C)(=O)=O)C1` (stereo not drawn) [Compound 142, N-(3-(9H-Carbazol-9-yl)-2-hydroxypropyl)-N-(3-methylcyclohexyl)methanesulfonamide] had an EC50 of 813 nM.

Compound `CC(C)CS(=O)(=O)N(Cc1ccco1)CC(O)Cn1c2ccccc2c2ccccc21` (stereo not drawn) [Compound 13, N-(3-(9H-Carbazol-9-yl)-2-hydroxypropyl)-N-(furan-2-ylmethyl)-2-methylpropane-1-sulfonamide] showed an EC50 of 454 nM.

Regarding `CCCc1ccc(N(CC(O)Cn2c3ccc(F)cc3c3cc(F)ccc32)S(C)(=O)=O)cc1` (stereo not drawn) [Compound 200, N-(3-(3,6-Difluoro-9H-carbazol-9-yl)-2-hydroxypropyl)-N-(4-propylphenyl)methanesulfonamide], it took 1890 nM to reach a half-maximal effect (EC50).

Take `CS(=O)(=O)N(CC(O)Cn1c2ccccc2c2ccccc21)c1ccc(Br)cc1` (stereo not drawn) [Compound 28, N-(3-(9H-Carbazol-9-yl)-2-hydroxypropyl)-N-(4-bromophenyl)methanesulfonamide]: it took 2090 nM to reach a half-maximal effect (EC50).

`CS(=O)(=O)N(CC(O)Cn1c2ccccc2c2ccccc21)c1cccc(C(N)=O)c1` (stereo not drawn) [Compound 74, 3-(N-(3-(9H-Carbazol-9-yl)-2-hydroxypropyl)methylsulfonamido)benzamide] returned an EC50 of 7620 nM.

`CC(C)(N(CC(O)Cn1c2ccccc2c2ccccc21)S(C)(=O)=O)C(F)(F)F` (stereo not drawn) [Compound 148, N-(3-(9H-Carbazol-9-yl)-2-hydroxypropyl)-N-(1,1,1-trifluoro-2-methylpropan-2-yl)methanesulfonamide] gave an EC50 of 489 nM.

Regarding `CS(=O)(=O)N1CCCCC1C(O)Cn1c2ccccc2c2ccccc21` (stereo not drawn) [Compound 242, 2-(9H-Carbazol-9-yl)-1-(1-(methylsulfonyl)-piperidin-2-yl)ethanol], a half-maximal response (EC50) required 494 nM.

For the compound `O=S(=O)(C1CCCCC1)N(Cc1ccco1)CC(O)Cn1c2ccccc2c2ccccc21` (stereo not drawn) [Compound 84, N-(3-(9H-Carbazol-9-yl)-2-hydroxypropyl)-N-(furan-2-ylmethyl)cyclohexanesulfonamide], it took 892 nM to reach a half-maximal effect (EC50).

Take `Cc1ccccc1N(CC(O)Cn1c2ccccc2c2ccccc21)S(C)(=O)=O` (stereo not drawn) [Compound 62, N-(3-(9H-Carbazol-9-yl)-2-hydroxypropyl)-N-o-tolylmethanesulfonamide]: the EC50 was 1330 nM.

Regarding `O=S(=O)(CC(F)F)N(Cc1ccco1)CC(O)Cn1c2ccccc2c2ccccc21` (stereo not drawn) [Compound 8, N-(3-(9H-Carbazol-9-yl)-2-hydroxypropyl)-2,2-difluoro-N-(furan-2-ylmethyl)ethanesulfonamide], the response was half-maximal at 6960 nM (EC50).

Compound `CC(C)N1CCCN(CC(C)(O)Cn2c3ccc(F)cc3c3cc(F)ccc32)S1(=O)=O` (stereo not drawn) [Compound 218, 2-(3-(3,6-Difluoro-9H-carbazol-9-yl)-2-hydroxy-2-methylpropyl)-6-isopropyl-1,2,6-thiadiazinane-1,1-dioxide] had an EC50 of 9780 nM.

As to `CCOCCS(=O)(=O)N(Cc1ccco1)CC(O)Cn1c2ccccc2c2ccccc21` (stereo not drawn) [Compound 12, N-(3-(9H-Carbazol-9-yl)-2-hydroxypropyl)-2-ethoxy-N-(furan-2-ylmethyl)ethanesulfonamide], a half-maximal response (EC50) required 1010 nM.

Regarding `CC1(C)CCN(CC(O)Cn2c3ccc(F)cc3c3cc(F)ccc32)S1(=O)=O` (stereo not drawn) [Compound 178, 2-(3-(3,6-Difluoro-9H-carbazol-9-yl)-2-hydroxypropyl)-5,5-dimethylisothiazolidine-1,1-dioxide], the response was half-maximal at 73 nM (EC50).

`CC(C)N(CC(C)(O)Cn1c2ccc(F)cc2c2cc(F)ccc21)S(C)(=O)=O` (stereo not drawn) [Compound 150, N-(3-(3,6-Difluoro-9H-carbazol-9-yl)-2-hydroxy-2-methylpropyl)-N-isopropylmethanesulfonamide]: the EC50 was found to be 5050 nM.

`CS(=O)(=O)N(CC(O)Cn1c2ccccc2c2ccccc21)c1ccc(F)cc1` (stereo not drawn) [Compound 24, N-(3-(9H-Carbazol-9-yl)-2-hydroxypropyl)-N-(4-fluorophenyl)methanesulfonamide] came in with an EC50 of 210 nM.

`CS(=O)(=O)N(CC(O)Cn1c2ccc(F)cc2c2ccc(F)cc21)C1CC1` (stereo not drawn) [Compound 167, N-Cyclopropyl-N-(3-(2,6-difluoro-9H-carbazol-9-yl)-2-hydroxypropyl)methanesulfonamide] came in with an EC50 of 267 nM.

Take `CS(=O)(=O)NCC(O)Cn1c2ccc(F)cc2c2cc(F)ccc21` (stereo not drawn) [Compound 154, N-(3-(3,6-Difluoro-9H-carbazol-9-yl)-2-hydroxypropyl)methanesulfonamide]: the EC50 is 680 nM.

In turn, `O=S1(=O)CCCN1CC(O)Cn1c2cc(F)ccc2c2c(F)cccc21` (stereo not drawn) [Compound 97, N-(3-(2,5-Difluoro-9H-carbazol-9-yl)-2-hydroxypropyl)-isothiazolidine-1,1-dioxide] had an EC50 of 319 nM.

As for `O=S(=O)(CCC(F)(F)F)N(Cc1ccco1)CC(O)Cn1c2ccccc2c2ccccc21` (stereo not drawn) [Compound 6, N-(3-(9H-Carbazol-9-yl)-2-hydroxypropyl)-3,3,3-trifluoro-N-(furan-2-ylmethyl)propane-1-sulfonamide], the EC50 amounted to 964 nM.

`O=S1(=O)CCCCN1CC(O)Cn1c2cccc(F)c2c2c(F)cccc21` (stereo not drawn) [Compound 105, N-(3-(4,5-Difluoro-9H-carbazol-9-yl)-2-hydroxypropyl)-1,2-thiazinane 1,1-dioxide] returned an EC50 of 5200 nM.

In turn, `O=S(=O)(c1ccccc1)N(Cc1ccco1)CC(O)Cn1c2ccccc2c2ccccc21` (stereo not drawn) [Compound 4, N-(3-(9H-Carbazol-9-yl)-2-hydroxypropyl)-N-(furan-2-ylmethyl)benzenesulfonamide] registered an EC50 of 2500 nM.

`O=S1(=O)N(CC(O)Cn2c3ccc(F)cc3c3cc(F)ccc32)CCN1C1CCCCC1` (stereo not drawn) [Compound 233] came in with an EC50 of 418 nM.

In turn, `CS(=O)(=O)N(CC(O)Cn1c2ccc(F)cc2c2cc(F)ccc21)C1CC1` (stereo not drawn) [Compound 118, N-Cyclopropyl-N-(3-(3,6-difluoro-9H-carbazol-9-yl)-2-hydroxypropyl)methanesulfonamide] displayed an EC50 of 81 nM.

For the compound `CS(=O)(=O)N(CC(O)Cn1c2ccccc2c2ccccc21)C1CCCCC1(F)F` (stereo not drawn) [Compound 135, N-(3-(9H-Carbazol-9-yl)-2-hydroxypropyl)-N-(2,2-difluorocyclohexyl)methanesulfonamide], the EC50 is 609 nM.

Compound `O=S(=O)(C1CC1)N(Cc1ccco1)CC(O)Cn1c2ccccc2c2ccccc21` (stereo not drawn) [Compound 16, N-(3-(9H-Carbazol-9-yl)-2-hydroxypropyl)-N-(furan-2-ylmethyl)cyclopropanesulfonamide] had an EC50 of 1670 nM.

Regarding `CS(=O)(=O)NCC(O)Cn1c2ccccc2c2ccccc21` (stereo not drawn) [Compound 113, N-(3-(9H-Carbazol-9-yl)-2-hydroxypropyl)methanesulfonamide], the EC50 amounted to 123 nM.

For `O=S1(=O)c2ccccc2CCN1CC(O)Cn1c2ccccc2c2ccccc21` (stereo not drawn) [Compound 43, N-(3-(9H-Carbazol-9-yl)-2-hydroxypropyl)-3,4-dihydro-2H-benzo[e][1,2]thiazine 1,1-dioxide], a half-maximal effect (EC50) was put at 3000 nM.

`COC1CCS(=O)(=O)N(CC(O)Cn2c3ccccc3c3ccccc32)C1` (stereo not drawn) [Compound 112, N-(3-(9H-Carbazol-9-yl)-2-hydroxypropyl)-4-methoxy-1,2-thiazinane-1,1-dioxide] showed an EC50 of 44 nM.

For `CC(O)(CN1CCCNS1(=O)=O)Cn1c2ccc(F)cc2c2cc(F)ccc21` (stereo not drawn) [Compound 172, 2-(3-(3,6-Difluoro-9H-carbazol-9-yl)-2-hydroxy-2-methylpropyl)-1,2,6-thiadiazinane-1,1-dioxide], it took 375 nM to reach a half-maximal effect (EC50).

Regarding `CN1CCCN(CC(O)Cn2c3ccc(F)cc3c3cc(F)ccc32)S1(=O)=O` (stereo not drawn) [Compound 169, 2-(3-(3,6-Difluoro-9H-carbazol-9-yl)-2-hydroxypropyl)-6-methyl-1,2,6-thiadiazinane-1,1-dioxide], the EC50 was 504 nM.

In turn, `O=S1(=O)CCCCN1CC(O)Cn1c2ccc(F)cc2c2ccc(F)cc21` (stereo not drawn) [Compound 100, N-(3-(2,6-Diflouoro-9H-carbazol-9-yl)-2-hydroxypropyl)-1,2-thiazinane 1,1-dioxide] gave an EC50 of 32 nM.

As to `CS(=O)(=O)N(CCc1ccccc1)CC(O)Cn1c2ccccc2c2ccccc21` (stereo not drawn) [Compound 54, N-(3-(9H-Carbazol-9-yl)-2-hydroxypropyl)-N-phenethylmethanesulfonamide], the response was half-maximal at 824 nM (EC50).

The compound `CS(=O)(=O)N(Cc1ccco1)CC(O)Cn1c2ccc(F)cc2c2ccc(F)cc21` (stereo not drawn) [Compound 102, N-(3-(2,6-Difluoro-9H-carbazol-9-yl)-2-hydroxypropyl)-N-(furan-2-ylmethyl)methanesulfonamide] gave an EC50 of 3250 nM.
